Reference: patent publication US8673980B2, “Closthioamides, compositions, and methods for treating bacterial or fungal infections or cancer” (Leibniz-Institut fuer Naturstoff-Forschung und …, priority 2009, dated 2014)
≈ marks a conversion by molar mass, not a printed value.

Legend:
Assay type in all cases: cell-based
[1] = tested on: K-562; experiment: Antiproliferative activity on K-562 cells; settings: K562; K-562 human erythromyeloblastoid leukemia cells
Protocol: (§1) For the detailed evaluation of its biological profile as anti-cancer agent, cultured human tumor cell lines were treated with the closthioamide 1. In particular, closthioamide 1 was tested for its inhibitory effect on cell growth of different human cell lines.

[2] = tested on: HUVEC; experiment: Antiproliferative activity on HUVEC cells; settings: HUVEC human umbilical vein endothelial cells
Protocol: as §1

[3] = tested on: HeLa; experiment: Cytotoxicity on HeLa cells; settings: HeLa human epithelial cervical cancer
Protocol: The major metabolite (1) was isolated from a 5 L culture and purified by sequential open column chromatography and RP-HPLC (FIG. 1), yielding 1.04 mg of a pale yellow compound. […] According to HR-MS measurements, 1 has a molecular formula of C29H38N6O2S6 and appeared to be amazingly rich in sulfur atoms. Furthermore, NMR data disclosed that the molecule is symmetrical: The ^13C NMR and DEPT spectra indicated the presence of six methylene, two methine, and five quaternary carbons. In the ^1H NMR spectrum signals corresponding to two olefinic and six methylene protons were observed (see Table 1).
as §1

[4] = tested on: Bacillus subtilis; experiment: Standardized antimicrobial assay (agar diffusion test)
Protocol: (§2) For the detailed evaluation of their antimicrobial (antibacterial, antifungal) activity, dosthioamides according to the invention were subjected to standardized antimicrobial assays (Herold et al., Chem. Eur. J., 2005), e.g. agar diffusion test. In particular, closthioamide 1 was tested for its inhibitory effect on cell growth of different bacterial strains and/or fungi. The tested microbes included Bacillus subtilis, Staphylococcus aureus, E. coli, Pseudomonas aeruginosa, Staphylococcus aureus MRSA, Enterococcus faecalis VRE, Mycobacterium vaccae, Sporobolomyces salmonicolor, Candida albicans, and Penicillium notatum.

[5] = tested on: Candida albicans; experiment: as above
Protocol: as §2

[6] = tested on: E. coli; experiment: as above
Protocol: as §2

[7] = tested on: Mycobacterium vaccae; experiment: as above
Protocol: as §2

[8] = tested on: Penicillium notatum; experiment: as above
Protocol: as §2

[9] = tested on: Pseudomonas aeruginosa; experiment: as above
Protocol: as §2

[10] = tested on: Sporobolomyces salmonicolor; experiment: as above
Protocol: as §2

[11] = tested on: Staphylococcus aureus; experiment: as above
Protocol: as §2

[12] = tested on: Enterococcus faecalis VRE; experiment: as above; settings: for antibacterial activity: vancomycin-resistant Enterococcus faecalis
Text: (§3) FIG. 4. A Activity of synthetic closthioamide (1) using 4 bacterial test strains; from left to right: (1) E. coli, (2) Mycobacterium vaccae, (3) methicillin-resistant Staphylococcus aureus (MRSA), (4) vancomycin-resistant Enterococcus faecalis (VRE). B Ciprofloxacin control.
as §2

[13] = tested on: Staphylococcus aureus MRSA; experiment: as above
Text: as §3, §2

[14] = Cytotoxicity (data not shown)
[15] = tested on: E. coli, Mycobacterium vaccae, MRSA, VRE; experiment: Activity of synthetic closthioamide using 4 bacterial test strains (FIG. 4A)
Text: as §3

In the case of `Oc1ccc(C(=S)NCCC(=S)NCCC(=S)NCCCNC(=S)CCNC(=S)CCNC(=S)c2ccc(O)cc2)cc1` [closthioamide 1, closthioamide], the GI50 [1] is reported as 1.5 µg/mL (≈ 2.16 µM), the GI50 [2] is reported as 6.4 µg/mL (≈ 9.21 µM) and the CC50 [3] is reported as 5.1 µg/mL (≈ 7.34 µM). For the same compound, the antimicrobial activity [4] was “showed activity”, the antimicrobial activity [5] was “showed activity” and the antimicrobial activity [6] was “showed activity”. For the same compound, the antimicrobial activity [7] was “showed activity”, the antimicrobial activity [8] was “showed activity” and the antimicrobial activity [9] was “showed activity”. For the same compound, the antimicrobial activity [10] was “showed activity”, the antimicrobial activity [11] was “showed activity” and the antimicrobial activity ([12]; Enterococcus faecalis VRE) was “showed activity”. The antibacterial activity ([12]; FIG. 4, synthetic closthioamide) was “highly active”, the antibacterial activity ([12]; preliminary bioactivity profiling, isolated metabolite) was “antibacterial activity” and the antibacterial activity ([13]; FIG. 4, synthetic closthioamide, methicillin-resistant Staphylococcus aureus) was “highly active”. For the same compound, the antimicrobial activity ([13]; Staphylococcus aureus MRSA) was “showed activity”, the antibacterial activity ([13]; preliminary bioactivity profiling, isolated metabolite, methicillin-resistant Staphylococcus aureus (MRSA)) was “antibacterial activity” and the cytotoxicity [14] was “only moderate cytotoxicity”. The “activity of synthetic compound compared with the bacterial metabolite” value [15] was “equivalent to the activity of the bacterial metabolite”.
